# Measurements from US20240409560A1, “PYRIMIDINE TRICYCLIC DERIVATIVE AND PHARMACEUTICAL APPLICATION THEREOF” (CHIA TAI TIANQING PHARMACEUTICAL GROUP CO., LTD., priority 2021, published 2024).
# What was measured:
# sGC = target: T1, sGC (Homo sapiens, UniProt Q02153); experiment: LNCap cell-based cGMP expression assay (HTRF); conditions: minimum effective concentration to stimulate cGMP production (three times greater than the basal value) in lnCap cells; DETA-NO added
# T1 construct: endogenous in cells; host or cells: LNCaP cells (14th passage), no transfection described
# T1 sequence (Q02153 1-619): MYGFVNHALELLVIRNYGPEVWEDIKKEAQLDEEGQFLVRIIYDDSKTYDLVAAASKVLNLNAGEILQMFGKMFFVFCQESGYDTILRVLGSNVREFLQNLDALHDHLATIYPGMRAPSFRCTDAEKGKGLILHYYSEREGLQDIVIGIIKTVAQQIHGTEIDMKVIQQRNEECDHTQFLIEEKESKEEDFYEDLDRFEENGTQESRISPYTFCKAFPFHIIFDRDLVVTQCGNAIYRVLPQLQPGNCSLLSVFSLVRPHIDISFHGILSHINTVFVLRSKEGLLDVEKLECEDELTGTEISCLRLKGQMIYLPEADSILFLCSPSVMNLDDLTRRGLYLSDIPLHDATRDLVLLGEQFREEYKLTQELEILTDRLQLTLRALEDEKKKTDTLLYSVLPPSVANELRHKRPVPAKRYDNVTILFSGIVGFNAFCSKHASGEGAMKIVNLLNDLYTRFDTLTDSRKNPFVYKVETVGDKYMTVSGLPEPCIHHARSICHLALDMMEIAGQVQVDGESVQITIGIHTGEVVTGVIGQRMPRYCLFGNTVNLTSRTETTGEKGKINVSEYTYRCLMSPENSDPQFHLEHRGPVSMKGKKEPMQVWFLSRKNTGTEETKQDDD
# T1 sequence (Q02108 1-690 partner): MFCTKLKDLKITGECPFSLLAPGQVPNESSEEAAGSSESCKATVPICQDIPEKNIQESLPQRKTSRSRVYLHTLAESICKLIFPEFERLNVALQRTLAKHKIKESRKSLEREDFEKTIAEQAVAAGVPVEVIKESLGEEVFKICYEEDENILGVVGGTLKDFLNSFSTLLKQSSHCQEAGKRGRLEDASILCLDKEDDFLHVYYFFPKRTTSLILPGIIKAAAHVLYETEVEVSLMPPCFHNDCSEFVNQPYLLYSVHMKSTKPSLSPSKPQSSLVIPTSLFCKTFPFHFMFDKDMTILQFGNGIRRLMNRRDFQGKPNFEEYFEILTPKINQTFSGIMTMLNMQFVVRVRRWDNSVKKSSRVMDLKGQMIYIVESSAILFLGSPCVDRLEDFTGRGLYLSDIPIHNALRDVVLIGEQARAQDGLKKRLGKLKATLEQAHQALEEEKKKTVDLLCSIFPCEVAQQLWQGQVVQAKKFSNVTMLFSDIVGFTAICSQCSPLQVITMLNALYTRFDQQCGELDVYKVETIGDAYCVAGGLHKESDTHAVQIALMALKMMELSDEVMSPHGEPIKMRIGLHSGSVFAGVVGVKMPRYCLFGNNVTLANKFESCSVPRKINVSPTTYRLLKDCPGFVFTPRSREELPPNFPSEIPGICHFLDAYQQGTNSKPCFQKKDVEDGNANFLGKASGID
# Experimental: I. InCap Cell-Based cGMP Expression Assay
# • 10 g of BSA was dissolved in 100 mL of double distilled water (ddH2O) to give 10% BSA.
# • 10 mg of DETA-NO was weighed out and dissolved in 12.2 mL of double distilled water (ddH2O) to give 5 mM DETA-NO, which was aliquoted and cryopreserved in a freezer at −20° C.
# • a) To 1 mL of a lysis buffer was added 50 μL of cGMP-D2 (D2-labeled cyclic guanosine monophosphate), and the mixture was well mixed. • b) To 1 mL of a lysis buffer was added 50 μL of anti-cGMP cryptate (Eu^3+ cryptate-labeled anti-cyclic guanosine monophosphate antibody), and the mixture was well mixed.
# • (1) The compounds were diluted to 5 mM with DMSO, 10 μL of each of the compounds was transferred to a shallow well plate for Echo. • (2) The compounds were serially diluted with Echo. Each of the compounds was diluted to obtain 10 concentration gradients, and 50 nL of each compound at each concentration gradient was added to a 384 microwell plate.
# • (1) LNCap medium: RPMI1640+10% fetal bovine serum+1% […]. • (2) Phosphate buffered saline, pancreatin, and the medium used in the process of cell passaging were pre-heated in a water bath at 37° C. • (3) The cells (the 14th generation) were taken out of the 37° C. 5% CO2 incubator, and the old medium was pipetted off the culture flask. • (4) 5 mL of phosphate buffered saline was pipetted into the culture flask to rinse the cells, and then the liquid was discarded. • (5) 3 mL of pancreatin was pipetted into the culture flask. After the culture flask was shaken, the liquid was discarded, and the culture flask was placed in the incubator. • (6) After about 2 min, the culture flask was taken out. […] The cell suspension was transferred to a 50 mL centrifuge tube. • (7) 0.7 mL of the cell suspension was pipetted into a counter cup and the cells were counted on a ViCell XR. […]
# • (1) cGMP-D2 was transferred to the 384 microwell plate at 5 μL/well using Bravo. […] The mixtures were centrifuged at 1500 rpm for 1 min. • (3) The plate was incubated at room temperature for 1 h. • (4) 665/615 was read using envision. […]
# [1] = Tissue distribution study in rats, oral administration; type: in vivo, Sprague Dawley rats; conditions: male SD rats, po 1 mg/kg; samples at 2, 6, 12 h
# Experimental: Objective: This study was intended to test the distribution ratio of the compounds in plasma, heart, cerebrospinal fluid, and brain tissue in the case of oral administration.
# Sprague Dawley Rats (Male, 200-300 g, 7-9 Weeks Old, Shanghai SLAC)
# In the project, 6 male SD rats were orally dosed at 1 mg/kg, 0.2 mg/mL. Samples of cerebrospinal fluid, brain, heart tissue, and plasma were collected at 2 h, 6 h, and 12 h after the dosing and then subjected to LC-MS/MS analysis, and data were recorded. Relevant pharmacokinetic parameters were calculated using the Phoenix WinNonlin 6.3 software based on the recorded data.
# [2] = In vivo pharmacokinetic property study in male SD rats; conditions: Sprague-Dawley, rat, plasma
# Experimental: Objective: This study was intended to determine the pharmacokinetic parameters of the compounds in male SD rats.
# Sprague Dawley rats (Male, 200-300 g, 7-9 weeks old, Shanghai SLAC)
# In the project, 4 male SD rats were used. One group of 2 SD rats were dosed by intravenous injection at 0.3 mg/kg, 0.15 mg/mL and another group of 2 SD rats were orally dosed at 1 mg/kg, 0.2 mg/mL. Plasma samples were collected at 0.083 h (the intravenous injection group only), 0.25 h, 0.5 h, 1 h, 2 h, 4 h, 6 h, 8 h, 12 h, and 24 h after the dosing and then subjected to LC-MS/MS analysis, and data were recorded. Relevant pharmacokinetic parameters were calculated using the Phoenix WinNonlin 6.3 software based on the recorded data.
SMILES,MEC of the stimulating activity for sGC (sGC) [nM],"AUC0-last, heart [1]","AUC0-last, plasma [1]",clearance ([2]; iv 0.3 mg/kg) [mL/min/kg],half-life ([2]; iv 0.3 mg/kg) [h],"Vd ([2]; iv 0.3 mg/kg, read-out: Vdss) [L/kg]",bioavailability ([2]; po 1 mg/kg) [%],half-life ([2]; po 1 mg/kg) [h]
CO[C@@]12C(=O)Nc3nc(-c4nn(CCC(F)(F)C(F)(F)F)c5ncc(F)cc45)nc(c31)NC(=O)C2(C)C [Compound 006],214,6970 h*nmol/L or h*nmol/kg,1889 h*nmol/L or h*nmol/kg,4.58,6.28,2.36,65,6.7
CO[C@]12C(=O)Nc3nc(-c4nn(CCC(F)(F)C(F)(F)F)c5ncc(F)cc45)nc(c31)NC(=O)C2(C)C [Compound 007],548,,,,,,,
CC1(C)C(=O)Nc2nc(-c3nn(Cc4ccccc4F)c4ncc(F)cc34)nc3c2C1(O)C(=O)N3 (stereo not shown) [Compound 016],19.3,,,,,,,
